“Also recorded” adds a separate entry of the source.
Tests used:
cleaved caspase-3 [1] = experiment: Flow cytometry cleaved caspase-3, HCT116; format: cell-based
Experimental: (§1) Cells were irradiated using ^137Cs gamma-ray photons at a dose-rate of ~1 Gy/min (Best Theratronics Gammacell® 40Exactor, Springfield, USA).
(§2) Cells were collected and fixed in 70% ethanol at 6, 12, 24, 48, 72, and 96 h post-irradiation and stored at −20°C. For cell cycle analyses, 6, 12, 24, and 48 h samples were rehydrated and washed twice with PBS and stained with DAPI (Sigma Aldrich Sweden, Stockholm, Sweden) using 1 μg/ml for 30 min. 24, 48, 72, and 96 h samples were stained with caspase-3 and Noxa (ab13847 (1:500) and ab13654 (1:1,000), AbCam, Cambridge, UK) overnight at 4°C, followed by incubation with fluorescent labeled secondary antibodies for 90 min (ab 1:400) at room temperature. Analyses were performed using a BD LSR Fortessa flow cytometer (Becton Dickinson Biosciences, San Jose, USA). Data analyses for cleaved caspase-3 and Noxa were performed with BD FACSDiVa (Becton Dickinson Biosciences, San Jose, USA), while cell cycle analyses of exclusively viable cells were performed using FlowJo (Becton, Dickinson Biosciences, San Jose, USA). Coefficient of variation (CV) values, were below seven for all samples.

UM-SCC-74B spheroids = experiment: 3D tumor spheroid growth, UM-SCC-74B; format: cell-based, human; conditions: for Maximum time to termination / Median time to termination: volume >600 μm^3; for CDI: CDI = AB/(A*B)
Experimental: as §1
For liquid overlay 3D spheroid formation, 96-well plates were coated with 0.15% agarose dissolved in PBS with 1% penicillin/streptomycin. 1000 UM-SCC-74B cells/well were seeded and incubated at 37°C for 3 days prior to treatment. […] Half of the medium was replaced every 48 h for the first 10 days, thereafter every 4 days. […] Images were obtained every 2–4 days using a Canon EOS 700D camera mounted on an inverted Nikon Diaphot-TMD microscope. […] Each spheroid was normalized to its own starting volume at the start of treatment (Day 0, growth ratio = 1). Spheroids exceeding a volume of 600 μm^3 were excluded (i.e., terminated) from further analyses as 600 μm^3 is the maximum size possible to obtain in these settings with uncompromised growth conditions.
GraphPad Prism version 6.07 (GraphPad Software, San Diego, USA) was used for data processing and analysis. p-values were determined using unpaired student's t-test for comparison between two groups or one-way ANOVA followed by Tukey's multiple comparisons test, with p < 0.05 (^*), p < 0.01 (^**), p < 0.001 (^***), and p < 0.0001 (^****). For XTT assays cell viability was normalized for irradiated and unirradiated samples separately. […] CDI ≤ 0.7 equaled significant synergistic effect, CDI ≤ 1 equaled additive effect and CDI > 1 equaled antagonistic effect ([29]).

HCT116 = experiment: Cell cycle analysis by flow cytometry, HCT116; format: cell-based; conditions: for G2/M-phase / S-phase: viable cells, DAPI
Experimental: as §1, §2

cleaved caspase-3 [2] = experiment: Flow cytometry cleaved caspase-3, UM-SCC-74B; format: cell-based, human
Experimental: as §1, §2

wt p53 tumors = conditions: mice, PM2 combined with radiotherapy; cited from earlier work
[3] = Combination 2 Gy + 20 μM PM2, 6 h
[4] = Combination 2 Gy + 20 μM PM2, 12 h
[5] = Combination 2 Gy + 20 μM PM2, 24 h
[6] = Combination 2 Gy + 20 μM PM2, 48 h

In the case of `CC(=O)N[C@H](C(=O)N[C@@H](CO)C(=O)N[C@@H](Cc1ccccc1)C(=O)N[C@]1(C)CCCCCCC=CCCC[C@@](C)(C(N)=O)NC(=O)[C@H](CC(C)C)NC(=O)[C@H](CC(C)C)NC(=O)[C@H](C)NC(=O)[C@H](Cc2c[nH]c3ccccc23)NC(=O)[C@H](Cc2ccc(O)cc2)NC(=O)[C@H](CCC(=O)O)NC1=O)[C@@H](C)O` [PM2], the “cleaved caspase-3 expression” value (cleaved caspase-3 [1]; 20 μM PM2, 72 h) was “distinct increases”, the “cleaved caspase-3 increase compared to controls” value (cleaved caspase-3 [1]; 20 μM PM2-treated, peak at 96 h, n ≥ 3) was 10 fold and the “Maximum time to termination” value (UM-SCC-74B spheroids; 2 × 2 Gy and 3 × PM2) was 25 days. The “Median time to termination” value (UM-SCC-74B spheroids; 2 × 2 Gy and 3 × PM2) was 21 days, the spheroid response (UM-SCC-74B spheroids; 2 × 2 Gy/3 × 20 μM PM2, day 14) was “continuous growth inhibition throughout day 14” and the “spheroid size of untreated controls” value (UM-SCC-74B spheroids; 3 × 2 Gy + single dose of PM2, day 14) was 75%. For the same compound, the “increase of median time to termination compared to untreated controls” value (UM-SCC-74B spheroids; 3 × 2 Gy and 3 × PM2) was 2 fold, the “Maximum time to termination” value (UM-SCC-74B spheroids; 3 × 2 Gy and 3 × PM2) was 35 days and the “Median time to termination” value (UM-SCC-74B spheroids; 3 × 2 Gy and 3 × PM2) was 28 days. The spheroid response (UM-SCC-74B spheroids; 3 × 2 Gy/3 × 20 μM PM2, day 14) was “continuous growth inhibition throughout day 14”, the “spheroid size of treated spheroids as % of untreated controls” value (UM-SCC-74B spheroids; 5 × 20 μM PM2 at 48 h intervals, day 14, no radiation) was 57% and the “spheroid size of untreated controls” value (UM-SCC-74B spheroids; 5 × 2 Gy + single dose of PM2, day 14) was 55%. For the same compound, the “Maximum time to termination” value (UM-SCC-74B spheroids; 5 × 2 Gy and 1 × PM2) was 25 days, the “Median time to termination” value (UM-SCC-74B spheroids; 5 × 2 Gy and 1 × PM2) was 21 days and the “Maximum time to termination” value (UM-SCC-74B spheroids; 5 × 2 Gy and 5 × PM2) was “Not reached”. For the same compound, the “Median time to termination” value (UM-SCC-74B spheroids; 5 × 2 Gy and 5 × PM2) was “Not reached”, the spheroid response (UM-SCC-74B spheroids; 5 × 2 Gy/5 × 20 μM PM2) was “spheroid disintegration and cell death” and the “Maximum time to termination” value (UM-SCC-74B spheroids; 5 × PM2, no radiation) was 21 days. For the same compound, the “Median time to termination” value (UM-SCC-74B spheroids; 5 × PM2, no radiation) was 21 days, the CDI (UM-SCC-74B spheroids; Day 10, 1 × 20 μM PM2 + 1 × 2 Gy) was 0.705 and the CDI (UM-SCC-74B spheroids; Day 10, 1 × 20 μM PM2 + 2 × 2 Gy) was 0.507. It also gave a CDI (UM-SCC-74B spheroids; Day 10, 1 × 20 μM PM2 + 3 × 2 Gy) of 0.493, a CDI (UM-SCC-74B spheroids; Day 10, 1 × 20 μM PM2 + 5 × 2 Gy) of 0.472 and a CDI (UM-SCC-74B spheroids; Day 10, 2 × 20 μM PM2 + 2 × 2 Gy) of 0.209. It also gave a CDI (UM-SCC-74B spheroids; Day 10, 3 × 20 μM PM2 + 1 × 2 Gy) of 0.412, a CDI (UM-SCC-74B spheroids; Day 10, 3 × 20 μM PM2 + 2 × 2 Gy) of 0.122 and a CDI (UM-SCC-74B spheroids; Day 10, 3 × 20 μM PM2 + 3 × 2 Gy) of 0.244. The CDI (UM-SCC-74B spheroids; Day 10, 5 × 20 μM PM2 + 1 × 2 Gy) was 0.398, the CDI (UM-SCC-74B spheroids; Day 10, 5 × 20 μM PM2 + 5 × 2 Gy) was 0.201 and the CDI (UM-SCC-74B spheroids; Day 14, 1 × 20 μM PM2 + 1 × 2 Gy) was 1.03. For the same compound, the CDI (UM-SCC-74B spheroids; Day 14, 1 × 20 μM PM2 + 2 × 2 Gy) was 0.93, the CDI (UM-SCC-74B spheroids; Day 14, 1 × 20 μM PM2 + 3 × 2 Gy) was 0.821 and the CDI (UM-SCC-74B spheroids; Day 14, 1 × 20 μM PM2 + 5 × 2 Gy) was 0.815. The CDI (UM-SCC-74B spheroids; Day 14, 2 × 20 μM PM2 + 2 × 2 Gy) was 0.51, the CDI (UM-SCC-74B spheroids; Day 14, 3 × 20 μM PM2 + 1 × 2 Gy) was 0.944 and the CDI (UM-SCC-74B spheroids; Day 14, 3 × 20 μM PM2 + 2 × 2 Gy) was 0.333. For the same compound, the CDI (UM-SCC-74B spheroids; Day 14, 3 × 20 μM PM2 + 3 × 2 Gy) was 0.182, the CDI (UM-SCC-74B spheroids; Day 14, 5 × 20 μM PM2 + 1 × 2 Gy) was 0.568 and the CDI (UM-SCC-74B spheroids; Day 14, 5 × 20 μM PM2 + 5 × 2 Gy) was 0.023. The “effect on proliferation rate of spheroids” value (UM-SCC-74B spheroids; all combination treatments of PM2 and EBRT, prior to day 14) was “synergistic inhibitory effects”, the “spheroid response (abstract)” value (UM-SCC-74B spheroids; combination of PM2 and EBRT) was “growth inhibition and complete spheroid disintegration” and the spheroid disintegration (UM-SCC-74B spheroids; five repeated doses of both PM2 (20 μM) and 2 Gy) was 100%. The spheroid growth inhibition (UM-SCC-74B spheroids; repeated PM2 doses at 48 h intervals, no radiation) was “did inhibit growth in a dose-dependent manner”, the spheroid growth inhibition (UM-SCC-74B spheroids; single 20 μM PM2, 48 h incubation, no radiation) was “failed to impair UM-SCC-74B spheroid growth” and the spheroid growth inhibition (UM-SCC-74B spheroids; single dose of PM2 with EBRT) was “greater inhibitory effects than either treatment alone”. For the same compound, the spheroid growth inhibition (UM-SCC-74B spheroids; two repeated doses of each of PM2 and EBRT (data not shown)) was “growth inhibition surpassing the standard 14-day assay”, the G2/M-phase (HCT116; 20 μM PM2 alone, 6 h) was 19.4% and the S-phase (HCT116; 20 μM PM2 alone, 6 h) was 55.8%. The G2/M-phase (HCT116; 20 μM PM2 alone, 12 h) was 30.1%, the S-phase (HCT116; 20 μM PM2 alone, 12 h) was 35.1% and the G2/M-phase (HCT116; 20 μM PM2 alone, 24 h) was 21.1%. The S-phase (HCT116; 20 μM PM2 alone, 24 h) was 10.7%, the G2/M-phase (HCT116; 20 μM PM2 alone, 48 h) was 20.6% and the S-phase (HCT116; 20 μM PM2 alone, 48 h) was 23%. For the same compound, the “S-phase reduction / depletion” value (HCT116; 2 Gy + 20 μM PM2) was “S-phase reduction occurred as early as 12 h post-treatment; also recorded: S-phase depletion at 24 h post-treatment”, the “G2/M-phase cells versus untreated controls” value (HCT116; 2 Gy + 20 μM PM2, throughout 48 h) was “More than twice as many cells” and the G2/M-phase (HCT116; [3]) was 39.9%. It also gave a S-phase (HCT116; [3]) of 44.9%, a G2/M-phase (HCT116; [4]) of 53.8% and a S-phase (HCT116; [4]) of 17.3%. For the same compound, the G2/M-phase (HCT116; [5]) was 42.7%, the S-phase (HCT116; [5]) was 5.51% and the G2/M-phase (HCT116; [6]) was 29.9%. For the same compound, the S-phase (HCT116; [6]) was 17.5%, the “cleaved caspase-3 expression” value (cleaved caspase-3 [2]; 20 μM PM2, 72 h) was “distinct increases” and the “cleaved caspase-3 increase compared to controls” value (cleaved caspase-3 [2]; 20 μM PM2-treated, peak at 72 h, n ≥ 3) was 40 fold. For the same compound, the “cleaved caspase-3, combination versus PM2 alone” value (cleaved caspase-3 [2]; 2 Gy + 20 μM PM2, p ≤ 0.05) was “significantly higher expression levels” and the “prolongation of median survival” value (wt p53 tumors) was 50%.

From article PMC6764291 (Frontiers in Oncology, 2019)
